Assay results as given in patent US12637418B2, “Heterocyclic compounds as antagonist of NMDA” (TAKEDA PHARMACEUTICAL COMPANY LIMITED, priority 2019, dated 2026).

Tests used:
[1] = continuous intravenous administration; cited from earlier work
[2] = rodents; cited from earlier work
[3] = molecular target: NMDA receptor composed of four subunits including 2 sets of heterodimers of NR1 and NR2B (human GRIN1 and GRIN2B expressed in HEK293 cell) (Homo sapiens, UniProt Q13224); assay: NR2B Ca^2+ influx assay; format: cell-based; details: 10 μM final compound concentration; 30 μM glutamic acid and 30 μM glycine; HEK293 cells expressing GRIN1 and GRIN2B; Fluo-4 fluorescence; read-out: inhibitory rate (10 μM compound concentration)
Text: To confirm the “antagonistic action on an NMDA receptor containing the NR2B subunit” of the compound of the present invention, human embryonic kidney cell expressing the “NMDA receptor composed of four subunits including 2 sets of heterodimers of NR1 and NR2B”, specifically HEK293 cell expressing human glutamate ionotropic receptor NMDA type subunit 1 (GRIN1) and human glutamate ionotropic receptor NMDA type subunit 2B (GRIN2B), was used and the activation suppressive effect on the receptors was measured.
HEK293 cells that express GRIN1 and GRIN2B were purchased from ChanTest (Human NMDA (NR1/NR2B) Receptor-expressing, stable replicating cell line (HEK293) catalog No. CT6121).
As an index of the NMDA receptor activation, intracellular calcium ion (Ca^2+) influx caused by the binding of glycine and glutamic acid with NR1 and NR2B, respectively, was used.
HEK293 cells that express GRIN1 and GRIN2B were cultured in DMEM/F-12 (COSMO BIO, 10-092-CM) medium added with 10% FBS (fetal bovine serum, AusGene), 100 units/mL penicillin, 100 μg/mL streptomycin, 500 μg/mL neomycin, 100 μg/mL Zeocin (registered trade mark, Invitrogen), 5 μg/mL Blasticidin in a cell culture flask in an incubator (under 37° C., 5% CO2).
The cells were detached from the flask with trypsin the day before the assay, suspended in a seeding medium (DMEM (Invitrogen, 31053) added with 10% FBS, 100 units/mL penicillin, 100 μg/mL streptomycin) at 8×10^5 cells/mL, seeded by 25 μL per well in a 384-well plate (Falcon, 356663) at 20000 cells/well, and cultured overnight in an incubator. On the day of the assay, tetracycline (Wako Pure Chemical Industries, Ltd., 209-16561) was diluted with the seeding medium at 2 μg/mL, added at 25 μL/well to the plate seeded with the cells, and cultured for 2 hr in an incubator. Thereafter, the medium was removed, and the cells were washed with 50 μL/well assay buffer (137 mM NaCl, 4 mM KCl, 1.8 mM CaCl2, 10 mM HEPES (pH 7.2), 10 mM Glucose, 0.1% BSA). Then, a loading buffer (assay buffer added with 2.5 μM Fluo-4AM, 2 mM Amaranth, 1 mM Tartrazine) was added at 25 μL/well, and the cells were incubated in the incubator for 30 min, and at room temperature for 15 min. A solution of the Example compound diluted with the above-mentioned assay buffer at 30 μM (final concentration 10 μM) was added at 25 μL/well, and the cells were left standing for 15 min at room temperature. Using FDSS7000EX/μCELL (Hamamatsu Photonics K.K.), an assay buffer containing 30 μM glutamic acid and 30 μM glycine was added at 25 μL/well, and fluorescence signals with wavelengths of Excitation 480 nm and Emission 540 nm were measured every 3 seconds for 5 min. The inhibitory activity was calculated as a relative activity value (inhibitory rate) that inhibits 100% of the cumulative value of the fluorescence value of a well added with an assay buffer free of glutamic acid, glycine, relative to the cumulative value of the fluorescence value of each well.

[4] = test system: NMDA receptor containing NR2B subunit (NMDA receptor expressed in the hippocampus tissue); assay: In vivo [^3H]MK-801 binding test; parameters: species or system Sprague Dawley rats; details: [^3H]MK-801 binding inhibitory rate, rat hippocampus, vehicle 100%, MK-801 maleate 0%
Experimental: In Vivo [^3H]MK-801 Binding Test
To confirm the “functionally antagonistic action in vivo for NMDA receptor containing NR2B subunit” that the compound of the present invention has, a binding test was performed using a tritium-labeled form of MK-801 ((5R,10S)-5-methyl-10,11-dihydro-5H-5,10-epiminodibenzo[a,d][7]annulene) ([^3H]MK-801) which is a compound that binds to the gate of the NMDA receptor.
An Example compound (1 mg/kg/2 mL, 0.5% MC water) or vehicle ([…], 0.5% MC water) was orally administered (p.o.) to Sprague Dawley rats (body weight 180-260 g). After a certain period of time (near the time when the maximum blood concentration was reached), [^3H]MK-801 (20 μCi/kg/mL, Muromachi Kikai Co., Ltd.) was intravenously administered from the tail vein. […] 10 mL of liquid scintillator A (Fujifilm Wako Pure Chemical Corporation) was added, and the residual radioactivity was measured by a liquid scintillation counter (ALOKA LSC-6100). The residual radioactivity of 100 μL of the homogenate before filtration through the glass filter was also measured in the same manner. By calculating [residual radioactivity in filter/residual radioactivity in 100 μL of homogenate], correction by the dose of [^3H]MK-801 was performed, and the value was used as a binding ratio of [^3H]MK-801 in the NMDA receptor expressed in the hippocampus tissue of each individual. […]

[5] = in vivo; cited from earlier work
[6] = intravenous single administration; cited from earlier work
[7] = in vivo; cited from earlier work; remark: listed apart in the source

Sequence of NMDA receptor composed of four subunits including 2 sets of heterodimers of NR1 and NR2B (human GRIN1 and GRIN2B expressed in HEK293 cell) (Q13224 27-1484, other chains not shown): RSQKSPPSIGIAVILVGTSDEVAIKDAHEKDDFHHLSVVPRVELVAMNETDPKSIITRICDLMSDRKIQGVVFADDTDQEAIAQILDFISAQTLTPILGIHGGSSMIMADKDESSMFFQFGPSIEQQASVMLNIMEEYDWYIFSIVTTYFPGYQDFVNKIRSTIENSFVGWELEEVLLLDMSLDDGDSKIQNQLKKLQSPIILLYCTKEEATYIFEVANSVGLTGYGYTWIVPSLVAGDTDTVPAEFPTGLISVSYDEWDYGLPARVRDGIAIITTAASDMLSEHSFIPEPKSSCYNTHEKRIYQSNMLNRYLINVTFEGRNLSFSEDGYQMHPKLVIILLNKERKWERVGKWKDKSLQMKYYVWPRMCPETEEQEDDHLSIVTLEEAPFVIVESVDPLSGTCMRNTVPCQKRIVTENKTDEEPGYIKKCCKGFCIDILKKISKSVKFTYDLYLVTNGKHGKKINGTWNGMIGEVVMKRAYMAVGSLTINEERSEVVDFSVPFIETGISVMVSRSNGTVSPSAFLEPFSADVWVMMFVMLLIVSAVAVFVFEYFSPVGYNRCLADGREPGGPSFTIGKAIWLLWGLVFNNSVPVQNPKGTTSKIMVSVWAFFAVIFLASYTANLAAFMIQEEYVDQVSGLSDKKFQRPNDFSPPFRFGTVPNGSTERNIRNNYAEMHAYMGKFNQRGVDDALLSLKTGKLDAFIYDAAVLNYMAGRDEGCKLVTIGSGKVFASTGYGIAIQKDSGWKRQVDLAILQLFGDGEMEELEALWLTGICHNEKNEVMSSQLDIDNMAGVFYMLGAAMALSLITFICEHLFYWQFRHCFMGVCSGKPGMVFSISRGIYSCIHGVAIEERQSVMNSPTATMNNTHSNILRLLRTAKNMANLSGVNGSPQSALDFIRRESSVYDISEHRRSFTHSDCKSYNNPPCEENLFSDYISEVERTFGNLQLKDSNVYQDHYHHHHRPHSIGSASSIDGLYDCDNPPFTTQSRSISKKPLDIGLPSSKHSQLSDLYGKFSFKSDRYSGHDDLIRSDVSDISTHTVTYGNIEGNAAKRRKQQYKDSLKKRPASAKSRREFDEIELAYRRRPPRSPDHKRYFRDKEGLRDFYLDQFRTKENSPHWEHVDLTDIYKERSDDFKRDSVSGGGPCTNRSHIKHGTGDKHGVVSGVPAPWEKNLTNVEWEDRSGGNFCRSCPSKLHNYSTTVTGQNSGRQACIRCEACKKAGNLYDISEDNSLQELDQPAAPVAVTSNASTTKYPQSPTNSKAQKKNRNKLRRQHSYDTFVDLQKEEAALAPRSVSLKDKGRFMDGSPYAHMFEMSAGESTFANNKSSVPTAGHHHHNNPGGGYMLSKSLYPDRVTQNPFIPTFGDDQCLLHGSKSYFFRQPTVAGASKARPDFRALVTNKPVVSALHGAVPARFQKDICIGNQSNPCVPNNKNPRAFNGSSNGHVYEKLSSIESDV

## C[C@@H]([C@@H](O)c1ccc(O)cc1)N1CCC(O)(c2ccccc2)CC1 [CP-101, 606]
[1]
  treatment resistant-depression symptom: significantly improves treatment resistant-depression symptom
[2]
  number of occurrence and depth of cortical spreading depression: suppress the number of occurrence and the depth of cortical spreading depression

## COc1ncc(C#N)cc1CNC(=O)c1cnc(OC(F)F)c(F)c1 [Example 9, N-[(5-cyano-2-methoxypyridin-3-yl)methyl]-6-(difluoromethoxy)-5-fluoropyridine-3-carboxamide]
[3]
  inhibition at 10 µM: 94%
[4]
  inhibitory rate (1 mg/kg, p.o.): 10%

## COc1ccc(C#N)c(F)c1CNC(=O)c1cnc(OC(F)F)c(F)c1 [Example 17, N-[(3-cyano-2-fluoro-6-methoxyphenyl)methyl]-6-(difluoromethoxy)-5-fluoropyridine-3-carboxamide]
[3]
  inhibition at 10 µM: 96%
[4]
  inhibitory rate (1 mg/kg, p.o.): 17%

## CC(C(O)c1ccc(O)cc1)N1CCC(Cc2ccccc2)CC1 (stereo not drawn) [Ifenprodil]
[5]
  pain sense threshold: the pain sense threshold increases

## CNC1(c2ccccc2Cl)CCCCC1=O (stereo not drawn) [ketamine]
[6]
  depression symptoms accompanying major depression and bipolar disorder: improves depression symptoms accompanying major depression and bipolar disorder rapidly and in a sustained manner

## CC12CC3CC(C)(C1)CC(N)(C3)C2 [memantine]
[7]
  peripheral symptoms of dementia: partially improves peripheral symptoms of dementia
